Experimental data as given in article PMC9348534 (Advanced Pharmaceutical Bulletin, 2021).
Values after ≈ are worked out from the molar mass of the structure shown. Read-outs that look alike come from different tables or passages of the source.

Columns and labels:
[1] = aqueous; cited from earlier work
[2] = Dissolution and stability test in buffer solution; format: physicochemical; conditions: for Absorbance change (stability) up to 3 hours: aqueous solution, light exposure, ambient temperature, especially pH 1.0; for Appearance of solution after storage for 48 hours: 100 µM, room temperature
Experimental: Each solution in the respected buffer was then evaluated for its stability at ambient temperature and light exposure. It measured the absorbance change at 428, 416, and 404 nm, subsequently over a time-course using a UV-1800 spectrophotometer (Shimadzu, Japan).

[3] = system: K562 cells; assay: Cell viability assay (trypan blue exclusion or MTT); format: cell-based, human
From the text: (§1) MCF-7/HER2 and MCF-7/EV are HER2 and empty vector-transfected MCF-7 cells obtained from Prof. Yoshio Inouye (Department of Surgery, Toho University School of Medicine, Japan) through Prof. Masashi Kawaichi (Laboratory of Gene Function in Animals, NAIST, Japan). The cells of 4T1, NIH-3T3, and T47D were kindly provided by Prof. Masashi Kawaichi (Laboratory of Gene Function in Animals, NAIST, Japan). K652 cells are the collection from the Laboratory of Tumor Cell Biology, Nara Institute of Science and Technology, Japan. HCC1954 and Caco2 cell lines were given by Dr. dr. Muhammad Hasan Bashari (Faculty of Medicine, Universitas Padjajaran, Indonesia). WiDr cell line was obtained from the Faculty of Medicine, Public Health, and Nursing Universitas Gadjah Mada, Indonesia. […]
(§2) Cells were grown in 24 or 96-well microplate and then cultured for 24 h. […] After treatment, viable cells were enumerated using the trypan blue exclusion or quantified under MTT assay. […]
(§3) Molecular docking results were validated by determining the RMSD value of conformation bearing the lowest docking score representing the ∆G (kkal/mol). […] Cytotoxic potencies against several cell lines were statistically analyzed based on the IC50 values through linear regression with a P value of […].

[4] = system: MCF-7 cells; assay: as above; format: cell-based; conditions: Homo sapiens, MCF7; MCF-7, 24 hours treatment; read-out: IC 50 value
From the text: (§4) MCF-7/HER2 and MCF-7/EV are HER2 and empty vector-transfected MCF-7 cells obtained from Prof. Yoshio Inouye (Department of Surgery, Toho University School of Medicine, Japan) through Prof. Masashi Kawaichi (Laboratory of Gene Function in Animals, NAIST, Japan). The cells of 4T1, NIH-3T3, and T47D were kindly provided by Prof. Masashi Kawaichi (Laboratory of Gene Function in Animals, NAIST, Japan). K652 cells are the collection from the Laboratory of Tumor Cell Biology, Nara Institute of Science and Technology, Japan. HCC1954 and Caco2 cell lines were given by Dr. dr. Muhammad Hasan Bashari (Faculty of Medicine, Universitas Padjajaran, Indonesia). WiDr cell line was obtained from the Faculty of Medicine, Public Health, and Nursing Universitas Gadjah Mada, Indonesia. Briefly, MCF-7/HER2, MCF-7, NIH-3T3, T47D, MCF-7/EV, and 4T1 cells were cultured in Dulbecco’s Modified Eagles Medium (DMEM) high glucose (Gibco, USA), whereas HCC1954, Caco2, WiDr, K562 cells were grown in Rosewell Park Memorial Institute (RPMI) Medium. Both were supplemented with 10% (v/v) fetal bovine serum (Gibco, USA), HEPES (Sigma, USA), sodium bicarbonate (Sigma, USA), 150 IU/mL penicillin and 150 µg/mL streptomycin (Gibco) and 1.25 µg/mL amphotericin B (Gibco, USA). The cells were maintained at 37 °C with 5% CO2 in a humidified atmosphere.
(§5) Cells were grown in 24 or 96-well microplate and then cultured for 24 h. Subsequently, cells were treated with PGV-1 or CCA-1.1 at concentration series up to 10 µM, except for NIH-3T3 up to 100 µM and incubated for 24 hours. Untreated cells were used as control. After treatment, viable cells were enumerated using the trypan blue exclusion or quantified under MTT assay. The viable cells were represented as % cell viability vs. concentration of the sample, and the IC50 value or the concentration that inhibits 50% of cell growth was calculated.
(§6) Molecular docking results were validated by determining the RMSD value of conformation bearing the lowest docking score representing the ∆G (kkal/mol). The validity of the molecular docking method was represented as RMSD value < 2. Cytotoxic potencies against several cell lines were statistically analyzed based on the IC50 values through linear regression with a P value of […].

[5] = system: WiDr cells; assay: as above; format: cell-based; conditions: Homo sapiens, 24 hours treatment, read-out: IC 50 value
From the text: as §4, §5, §6

[6] = system: HCC1954 cells; assay: as above; format: cell-based; conditions: Homo sapiens; HCC1954, 24 hours treatment; read-out: IC 50 value
From the text: as §4, §5, §6

[7] = system: 4T1 cells; assay: as above; format: cell-based; conditions: Mus musculus; 4T1, 24 hours treatment; read-out: IC 50 value
From the text: as §4, §5, §6

[8] = system: MCF-7/EV cells; assay: as above; format: cell-based; conditions: Homo sapiens, MCF7, 24 hours treatment, read-out: IC 50 value
From the text: as §4, §5, §6

[9] = system: NIH-3T3 cells; assay: as above; format: cell-based; conditions: Mus musculus, NIH3T3; NIH-3T3 (non-cancerous), concentrations up to 100 µM, 24 hours; read-out: IC 50 value
From the text: as §4, §5, §6

[10] = system: T47D cells; assay: as above; format: cell-based; conditions: Homo sapiens, 24 hours treatment, read-out: IC 50 value
From the text: as §4, §5, §6

[11] = system: MCF-7/HER2 cells; assay: as above; format: cell-based; conditions: Homo sapiens, MCF7; MCF-7/HER2, 24 hours treatment; read-out: IC 50 value
From the text: as §4, §5, §6

[12] = system: Caco2 cells; assay: as above; format: cell-based; conditions: Homo sapiens, Caco-2; Caco2, 24 hours treatment; read-out: IC 50 value
From the text: as §4, §5, §6

[13] = system: several cancer cell lines; assay: Cytotoxic assay on several cancer cell lines (summary statement); format: cell-based; conditions: several cancer cell lines (Table 3)
From the text: as §1, §2, §3

[14] = system: MCF-7 cells; design: method as in PMID 31548601; conditions: read-out: IC 50 value; cited from earlier work
[15] = system: K562 cells; design: method as in PMID 31619723; conditions: read-out: IC 50 value; cited from earlier work
[16] = system: 4T1 cells; conditions: read-out: IC 50 value; cited from earlier work

Row | IC50 [6] [µM] | IC50 [8] [µM] | IC50 [10] [µM] | IC50 [11] [µM] | IC50 [12] [µM] | Appearance of solution after storage for 48 hours [2] | Structure (SMILES) | Absorbance change (stability) up to 3 hours [2] | IC50 [5] [µM] | IC50 [9] [µM] | IC50 [13] [µM] | further results
1 |  |  |  |  |  |  | COc1cc(C=CC(=O)CC(=O)C=Cc2ccc(O)c(OC)c2)ccc1O [curcumin, 1,7-bis(4-hydroxy-3-methoxyphenyl)-1,6-heptadiene-3,5-dione] | tended to decrease the absorbance at 3 hours |  |  |  | Solubility [1]: 40 µM (≈ 14.7 µg/mL)
2 | 6 | 8 | 7 | 5 | 5 | still looked clear | Cc1cc(C=C2CCC(=Cc3cc(C)c(O)c(C)c3)C2O)cc(C)c1O (centres unmarked) [CCA-1.1, 2,5-bis(4-hydroxy-3,5-dimethylbenzylidene)cyclopentanol] | unchanged absorbance up to 3 hours | 5 | > 50 | < 10 | IC50 ([3]; Homo sapiens, K562, 24 hours treatment, read-out: IC 50 value): 0.293 µM; Cytotoxic potency relative to PGV-1 ([3]; K562): twice stronger than PGV-1; IC50 [4]: < 10 µM; IC50 [7]: 3 µM; Solubility compared at a concentration of 100 µM ([2]; distilled water, buffer pH 1.0 and pH 7.4, 100 µM): more soluble than PGV-1 and curcumin; Solubility relative to PGV-1 ([2]; pH 1.0, 7.4, distilled water, observations up to 48 hours): two times more soluble than PGV-1
3 | 3 | 8 | 8 | 7 | 12 | appeared with some sediment or crystal | Cc1cc(C=C2CCC(=Cc3cc(C)c(O)c(C)c3)C2=O)cc(C)c1O [PGV-1, 2,5-bis(4-hydroxy-3,5-dimethylbenzylidene)cyclopentanone] | tended to decrease the absorbance at 3 hours | > 10 | > 50 | < 10 | IC50 [14]: 6 µM; IC50 [15]: 0.45 µM; IC50 [16]: 4 µM; Appearance of solution at 50 µM ([2]; 50 µM (data not shown)): appeared clear
